The values below are quoted from earlier work in US20150374878A1, “[…] FOR WOUND CARE” (AKESO BIOMEDICAL, INC., priority 2014, published 2015).

The conditions of this data set: see U.S. Pat. No. 5,858,365 to Faller.

As for `CCCC(=O)O` [butyric acid], the half-life in serum entry was “about 2 minutes”.
